The source of these data is patent publication US20220119355A1, “SATURATED-RING-FUSED DIHYDROPYRIMIDINONE OR DIHYDROTRIAZINONE COMPOUNDS AND PHARMACEUTICAL USE THEREOF” (Japan Tobacco Inc., priority 2018, published 2022).

As usually defined, the EC50 is the concentration needed to bring the measured effect to its halfway point. Low readings indicate an effect from little substance, high ones a need for much substance.

The target of one test is T1, human RORγ (Homo sapiens, UniProt P51449).
T1 construct: from Ser253 to Lys518 for human RORγ; expressed in transfected cells; host or cells: CHO cells (transient co-transfection with pG5-Luc)
T1 sequence (P51449 253-518): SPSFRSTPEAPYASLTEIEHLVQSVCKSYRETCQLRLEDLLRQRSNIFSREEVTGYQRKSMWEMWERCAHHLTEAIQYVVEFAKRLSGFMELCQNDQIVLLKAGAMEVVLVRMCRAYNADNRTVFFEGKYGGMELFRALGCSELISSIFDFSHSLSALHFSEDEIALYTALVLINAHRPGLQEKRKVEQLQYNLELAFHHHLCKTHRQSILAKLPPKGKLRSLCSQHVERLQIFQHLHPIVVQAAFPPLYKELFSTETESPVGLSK
The test can be described thus: In-vitro reporter gene assay for inhibitory activity against RORγ transcription, Test Method B (pFA/hRORγ LBD / pG5-Luc in CHO cells). The format is cell-based. As to conditions: for EC50: luciferase reporter, CHO cells, 2 days. As to the method:
(§1) In-Vitro Assay for Inhibitory Activity Against RORγ Transcription
(§2) Inhibitory activity against RORγ transcription was assessed for test compounds by either of the following Test Method A or B of reporter gene assay.
(§3) cDNAs encoding human and mouse RORγ ligand binding domains (LBD) were obtained based on the sequences of human RORγ (Genbank registered number NM_005060.3) and mouse RORγ (Genbank registered number NM_011281.2) (LBD sequences: from Ser253 to Lys518 for human RORγ; from Ile251 to Lys516 for mouse RORγ).
(§4) LBD cDNAs of human and mouse RORγ were inserted into pFA-CMV vector (Agilent Technologies, Inc.), which expresses GAL4-DNA binding domain fusion protein. The resulting plasmids are hereinafter referred to as pFA/hRORγ plasmid and pFA/mRORγ plasmid, respectively.
(§5) pFA/hRORγ plasmid or pFA/mRORγ plasmid was transiently co-transfected into Chinese hamster ovary cells (CHO cells) with pG5-Luc (Promega), reporter plasmid expressing firefly luciferase in a GAL4-dependent manner.
(§6) TransIT (Registered trademark) CHO Transfection Kit (Mirus) was used to co-transfect CHO cells with the plasmids. One day prior to the assay, CHO cells were suspended in HAM F-12 Nutrient medium containing 10% (v/v) fetal bovine serum and seeded at 5.5×10^6 cells per 225 cm^2 cell culture flask each. 72 μL of TransIT (Registered trademark) CHO reagent was added into a 2 mL tube containing 1.55 mL of Opti-MEM, and then mixed and incubated at room temperature for 10 minutes. 50.4 μL of a plasmid solution containing 300 ng of pFA/hRORγ plasmid, 12000 ng of pG5-Luc plasmid, and 11700 ng of pcDNA3.1 plasmid were added into the tube and mixed gently. In the case of mouse assay, a plasmid solution containing 300 ng of pFA/mRORγ plasmid, 12000 ng of pG5-Luc plasmid, and 11700 ng of pcDNA3.1 plasmid was added, instead. The mixture was incubated at room temperature for 10 minutes. 12 μL each of CHO Mojo Reagent were then added into each tube and mixed gently. The mixture was incubated at room temperature for 10 minutes. The resulting transfection reagent was applied to the cell culture. After incubation at 37° C., 5% CO2 for 4 hours, the plasmid-transfected CHO cells were harvested by trypsin treatment. The collected cells were resuspended in culture medium and plated into a 384-well-white plate at 8,000 cells/35 μL/well. The plate was let stand at room temperature for 1 hour and then further incubated at 37° C., 5% CO2 for 3 hours. A test compound was dissolved in dimethyl sulfoxide (DMSO) to obtain a concentration of 10 mM. Each solution was serially diluted with DMSO and further diluted with culture medium just before use. The test compound solutions were added to the cells in the plate at 6 different concentrations. The final concentration of DMSO was 0.2% (v/v). After the addition of test compound, the cells were incubated at 37° C., 5% CO2 for 2 days.
(§7) RORγ transcriptional activity was detected as the intracellular luciferase activity using SteadyLite HTS Reporter Gene Assay System (Perkin Elmer). SteadyLite Reagent was diluted 2.5-fold with Extension buffer (10 mM Tricine, 0.2% (w/v) bovine serum albumin, 0.02% (v/v) Tween-20) to obtain a luciferase substrate solution. Two days after the addition of test compound, 40 μL each of the luciferase substrate solution was added into the 384-well-plate. After the incubation at room temperature for 10 minutes, luminescence of each well was measured with a microplate reader. The luciferase activity derived from the luminescence count in a vehicle-control well treated with 0.2% DMSO alone was defined as 100%, and the luciferase activity after treatment of the test compound was calculated as a percentage, %-of-control, based on the value of the vehicle-control. An EC50 value of the test compound was calculated by curve fitting. The luminescence counts at the concentration of test compound where cytotoxicity was observed were excluded from data analysis. […]
In general terms: Reporter assays use an easily measured gene product as a stand-in for the process of interest.

The next test concerns the target T2, mouse RORγ (Mus musculus, UniProt P51450).
T2 construct: from Ile251 to Lys516 for mouse RORγ; expressed in transfected cells; host or cells: CHO cells (transient co-transfection with pG5-Luc)
T2 sequence (P51450 251-516): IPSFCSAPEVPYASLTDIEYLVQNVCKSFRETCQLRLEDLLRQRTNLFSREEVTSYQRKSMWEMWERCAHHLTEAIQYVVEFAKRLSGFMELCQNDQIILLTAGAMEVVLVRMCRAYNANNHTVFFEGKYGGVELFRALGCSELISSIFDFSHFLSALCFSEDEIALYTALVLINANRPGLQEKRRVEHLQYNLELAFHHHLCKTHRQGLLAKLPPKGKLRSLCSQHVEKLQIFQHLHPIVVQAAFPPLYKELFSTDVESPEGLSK
Put plainly: In-vitro reporter gene assay for inhibitory activity against RORγ transcription, Test Method B (pFA/mRORγ LBD / pG5-Luc in CHO cells). It is filed as cell-based. As to conditions: for EC50: luciferase reporter, CHO cells, 2 days. The protocol: as §1, §2, §3, §4, §5, §6, §7

The conditions of test [1]: Non Patent Literature 33; cited from earlier work.
[2] abbreviates: vehicle-control 0.2% DMSO = 100%.

Turning to `CC1CC[C@@]2(c3ccc(CCC(C)(C)C)c(Cl)c3)NC(=O)N(C34CCC(C(=O)O)(C3)C4)C=C2C1` (single isomer, unassigned) [Example 112], the 50% effective concentration (EC50) stood at 0.035 µM at human RORγ and 0.038 µM on mouse RORγ.
Taken in the same sequence, the figures for `CC1C2=CN(C34CC(C(=O)O)(C3)C4)C(=O)NC2(c2ccc(CCC(C)(C)C)c(Cl)c2)CC1(C)C` (single isomer, unassigned) [Example 35] were 4.19 µM and 4.97 µM.
The like results for `CC1(C)CC1COc1ccc(C23CCCCC2=CN(CCC(=O)O)C(=O)N3)cc1Cl` (racemic) [Example 88] were, in that order, 0.751 µM and 0.169 µM.
Consider `CC(C)(C)CCc1ccc([C@@]23CCC(C)(C)CC2=CN(C24CC(C(=O)O)(C2)C4)C(=O)N3)cc1Cl` (single isomer, unassigned) [Example 103], for which the results for the EC50 on human RORγ and at mouse RORγ were 0.026 µM and 0.046 µM, respectively.
As to `CC(C)Oc1ccc(C23CCCCC2=CN(CCC(=O)O)C(=O)N3)cc1Cl` (racemic) [Example 96], the EC50 at human RORγ and at mouse RORγ was greater than 10 µM in each case. On human RORγ (setting [2]), the “hRORγ luciferase activity after treatment with test compound, %-of-control” value is “(84%)”. Moreover, the “mRORγ luciferase activity after treatment with test compound, %-of-control” value at mouse RORγ (setting [2]) is “(84%)”.
For `CC1C2=CN(C34CC(C(=O)O)(C3)C4)C(=O)NC2(c2ccc(CCC(C)(C)C)c(Cl)c2)CC1(C)C` (single isomer, unassigned) [Example 34], the EC50 came to 0.087 µM on human RORγ and 0.169 µM on mouse RORγ.
Take `CCC1CC[C@@]2(c3ccc(CCC(C)(C)C)c(Cl)c3)NC(=O)N(C34CC(C(=O)O)(C3)C4)C=C2C1` (single isomer, unassigned) [Example 94]: the EC50 on human RORγ came out at 0.046 µM; on mouse RORγ, 0.082 µM.
The like results for `CC1CC[C@]2(c3ccc(CCC(C)(C)C)c(Cl)c3)NC(=O)N(C34CCC(C(=O)O)(C3)C4)C=C2C1` (single isomer, unassigned) [Example 111] were, in that order, 3.45 µM and 3.66 µM.
The like results for `CC1C2=CN(C34CC(C(=O)O)(C3)C4)C(=O)N[C@]2(c2ccc(CCC(C)(C)C)c(Cl)c2)COC1(C)C` (single isomer, unassigned) [Example 110] were, in that order, 0.01 µM and 0.012 µM.
Turning to `CC1C2=CN(C34CC(C(=O)O)(C3)C4)C(=O)N[C@]2(c2ccc(CCC(C)(C)C)c(Cl)c2)CCC1(C)C` (single isomer, unassigned) [Example 118], the EC50 came out at 0.033 µM at human RORγ and 0.082 µM on mouse RORγ.
The like results for `CC1C2=CN(C34CC(C(=O)O)(C3)C4)C(=O)N[C@]2(c2ccc(CCC(C)(C)C)c(Cl)c2)COC1(C)C` (single isomer, unassigned) [Example 109] were, in that order, 0.033 µM and 0.036 µM.
The like results for `C[C@@H]1CCC2(c3ccc(CCC(C)(C)C)c(Cl)c3)NC(=O)N(C34CC(C(=O)O)(C3)C4)C=C2[C@@H]1C` (single isomer, unassigned) [Example 106] were, in that order, 4.4 µM and 4.78 µM.
Consider `CCS(=O)(=O)c1ccc(CC(=O)Nc2cc(Cl)c(-c3ccccc3OC(F)(F)F)c(Cl)c2)cc1` [GSK805], for which the “bone loss in experimental periodontitis model” value in test [1] is listed as “diminished bone loss”.
For the compound `CC(C)C1CC[C@]2(c3ccc(CCC(C)(C)C)c(Cl)c3)NC(=O)N(C34CC(C(=O)O)(C3)C4)C=C2C1` (single isomer, unassigned) [Example 98], the values for the EC50 at human RORγ and on mouse RORγ were 4.36 µM and 5.11 µM, respectively.
The like results for `C[C@H]1CCC2(c3ccc(CCC(C)(C)C)c(Cl)c3)NC(=O)N(C34CC(C(=O)O)(C3)C4)C=C2[C@@H]1C` (single isomer, unassigned) [Example 107] were, in that order, 0.027 µM and 0.032 µM.
Taken in the same sequence, the figures for `CC(C)C1CC[C@]2(c3ccc(CCC(C)(C)C)c(Cl)c3)NC(=O)N([C@H]3CC[C@@H](C(=O)O)C3)C=C2C1` (single isomer, unassigned) [Example 104] were 5.26 µM and 5.28 µM.
Taken in the same sequence, the figures for `CCCCOc1ccc(C23CCCCC2=CN(CCC(=O)O)C(=O)N3)cc1Cl` (racemic) [Example 101] were 7.28 µM and 1.39 µM.
Regarding `CC(C)(C)CCc1ccc([C@@]23CCC(F)(F)CC2=CN(C24CC(C(=O)O)(C2)C4)C(=O)N3)cc1Cl` (single isomer, unassigned) [Example 87], the EC50 came out at 0.038 µM on human RORγ and 0.029 µM on mouse RORγ.
Taken in the same sequence, the figures for `CC1CC[C@]2(c3ccc(CCC(C)(C)C)c(Cl)c3)NC(=O)N(C34CC(C(=O)O)(C3)C4)C=C2C1` (single isomer, unassigned) [Example 89] were 3.71 µM and 4.19 µM.
Taken in the same sequence, the figures for `C[C@H]1CCC2(c3ccc(C4C(C(C)(C)C)C4(F)F)c(Cl)c3)NC(=O)N(C34CCC(C(=O)O)(C3)C4)C=C2[C@@H]1C` (single isomer, unassigned) [Example 115] were 0.031 µM and 0.049 µM.
Consider `CC(C)C1CC[C@@]2(c3ccc(CCC(C)(C)C)c(Cl)c3)NC(=O)N(C34CC(C(=O)O)(C3)C4)C=C2C1` (single isomer, unassigned) [Example 99], for which the concentration giving a half-maximal response (EC50) came out at 0.053 µM at human RORγ and 0.146 µM on mouse RORγ.
